# Assay results taken from the NIST ThermoML archive (doi:10.1021/je301347v).
# ± gives the expanded uncertainty stated by the source.
# Conditions: 101 kPa, Liquid, Voltage change across transformer (no electrode)
electrical conductivity (293.15 K),electrical conductivity (303.15 K),electrical conductivity (313.15 K),electrical conductivity (323.15 K),Compound
0.155 ± 0.0016 S/m,0.281 ± 0.003 S/m,0.461 ± 0.005 S/m,0.704 ± 0.007 S/m,CCCC[n+]1cccc(C)c1.F[B-](F)(F)F [1-butyl-3-methylpyridinium tetrafluoroborate]
0.1318 ± 0.0013 S/m,0.254 ± 0.003 S/m,0.439 ± 0.004 S/m,0.687 ± 0.007 S/m,CCCC[n+]1ccc(C)cc1.F[B-](F)(F)F [1-butyl-4-methylpyridinium tetrafluoroborate]
0.181 ± 0.0036 S/m,0.321 ± 0.006 S/m,0.519 ± 0.01 S/m,0.785 ± 0.016 S/m,CCCC[n+]1ccccc1.F[B-](F)(F)F [1-butylpyridinium tetrafluoroborate]
